Tested on: IL-12
Assay: Human in vitro assay: inhibition of IL-12 production in IFNγ/LPS- or IFNγ/SAC-stimulated human PBMC or THP-1 cells (ELISA)
Format: cell-based
Settings: read-out: IC50 Range (representative in vitro IC50 data)
Outline: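 Sandwich ELISA for IL-12 (p70, p40) on supernatants collected 18 h after stimulation gave IC50 values; MTS monitored viability. THP-1 cells: IFNγ 100 U/mL priming 22 h, SAC 0.025%. PBMC: IFNγ 30 U/mL for 22 h plus LPS 1 μg/mL, or IFNγ 100 U/mL plus SAC 0.01%. Final DMSO 0.25%.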

| SMILES | IC50 [nM] |
| --- | --- |
| Cn1c(=O)sc2cc(NC(=O)Nc3cc(OCCN4CCOCC4)nc(N4CCOCC4)n3)ccc21 [Compound 133, 1-(3-Methyl-2-oxo-2,3-dihydro-benzothiazol-6-yl)-3-[2-morpholin-4-yl-6-(2-morpholin-4-yl-ethoxy)-pyrimidin-4-yl]-urea] | ≥ 1000 |
| NC(=O)c1cccc(NC(=O)c2cc(OCCN3CCOC3=O)nc(N3CCOCC3)n2)c1 [Compound 43, 2-Morpholin-4-yl-6-[2-(2-oxo-oxazolidin-3-yl)-ethoxy]-pyrimidine-4-carboxylic acid (3-carbamoyl-phenyl)-amide] | ≥ 1000 |
| Cn1c(=O)oc2ccc(NC(=O)c3cc(OCCN4CCOCC4)nc(N4CCOCC4)n3)cc21 [Compound 218, N-(3-methyl-2-oxo-2,3-dihydrobenzo[d]oxazol-5-yl)-2-morpholino-6-(2-morpholinoethoxy)pyrimidine-4-carboxamide] | < 1000 |
| Cc1cccc(NC(=O)c2cc(OCCN3CCOCC3)nc(N3CCOCC3)n2)c1 [Compound 56, 2-Morpholin-4-yl-6-(2-morpholin-4-yl-ethoxy)-pyrimidine-4-carboxylic acid m-tolylamide] | ≥ 1000 |
| CO/N=C(\C)c1cccc(NC(=O)c2cc(OCCN3CCOCC3)nc(N3CCOCC3)n2)c1 [Compound 154, (E)-N-(3-(1-(methoxyimino)ethyl)phenyl)-2-morpholino-6-(2-morpholinoethoxy)pyrimidine-4-carboxamide] | < 1000 |
| Cc1[nH]c2ccc(NC(=O)c3cc(N4CCC5(CC4)OCCO5)nc(N4CCOCC4)n3)cc2c1C [Compound 172, 6-(1,4-Dioxa-8-aza-spiro[4.5]dec-8-yl)-2-morpholin-4-yl-pyrimidine-4-carboxylic acid (2,3-dimethyl-1H-indol-5-yl)-amide] | < 1000 |
| Cc1[nH]c2ccc(NC(=O)c3cc(N4CCN(CCO)CC4)nc(N4CCOCC4)n3)cc2c1C [Compound 94, 6-[4-(2-Hydroxy-ethyl)-piperazin-1-yl]-2-morpholin-4-yl-pyrimidine-4-carboxylic acid (2,3-dimethyl-1H-indol-5-yl)-amide] | < 1000 |
| O=C(Nc1cccc2ncccc12)c1cc(OCCc2ccccn2)nc(N2CCOCC2)n1 [Compound 39, 2-Morpholin-4-yl-6-(2-pyridin-2-yl-ethoxy)-pyrimidine-4-carboxylic acid quinolin-5-ylamide] | ≥ 1000 |
| Cc1[nH]c2ccc(NC(=O)c3cccc(N4CCOCC4)n3)cc2c1C [Compound 168, 6-Morpholin-4-yl-pyridine-2-carboxylic acid (2,3-dimethyl-1H-indol-5-yl)-amide] | < 1000 |
| NC(=O)c1ccc(NC(=O)c2cc(OCCN3CCOCC3)nc(N3CCOCC3)n2)nc1 [Compound 150, 2-Morpholin-4-yl-6-(2-morpholin-4-yl-ethoxy)-pyrimidine-4-carboxylic acid (5-carbamoyl-pyridin-2-yl)-amide] | < 1000 |
| CCN(CC)c1cc(C(=O)Nc2ccc3[nH]c(C)c(C)c3c2)nc(N2CCOCC2)n1 [Compound 93, 6-Diethylamino-2-morpholin-4-yl-pyrimidine-4-carboxylic acid (2,3-dimethyl-1H-indol-5-yl)-amide] | < 1000 |
| O=C(Nc1ccc(Nc2ccccc2)cc1)c1cc(OCCN2CCOCC2)nc(N2CCOCC2)n1 [Compound 284, 2-Morpholin-4-yl-6-(2-morpholin-4-yl-ethoxy)-pyrimidine-4-carboxylic acid (4-phenylamino-phenyl)-amide] | ≥ 1000 |
| Cc1[nH]c2ccc(NC(=O)c3cc(N(C)C)nc(N4CCOCC4)n3)cc2c1C [Compound 248, N-(2,3-dimethyl-1H-indol-5-yl)-6-(dimethylamino)-2-morpholino-pyrimidine-4-carboxamide] | < 1000 |
| Cc1[nH]c2ccc(NC(=O)c3cc(N(C)CC(=O)N4CCOCC4)nc(N4CCOCC4)n3)cc2c1C [Compound 114, 6-[Methyl-(2-morpholin-4-yl-2-oxo-ethyl)-amino]-2-morpholin-4-yl-pyrimidine-4-carboxylic acid (2,3-dimethyl-1H-indol-5-yl)-amide] | < 1000 |
| CCc1c(C)[nH]c2ccc(NC(=O)c3cc(N4CCC(C(N)=O)CC4)nc(N4CCOCC4)n3)cc12 [Compound 183, 6-(4-Carbamoyl-piperidin-1-yl)-2-morpholin-4-yl-pyrimidine-4-carboxylic acid (3-ethyl-2-methyl-1H-indol-5-yl)-amide] | < 1000 |
| CN1C(=O)c2ccc(NC(=O)c3cc(OCCN4CCOCC4)nc(N4CCOCC4)n3)cc2C1=O [Compound 274, 2-Morpholin-4-yl-6-(2-morpholin-4-yl-ethoxy)-pyrimidine-4-carboxylic acid (2-methyl-1,3-dioxo-2,3-dihydro-1H-isoindol-5-yl)-amide] | ≥ 1000 |
| O=C(Nc1nnc(N2CCOCC2)[nH]1)c1cc(OCCN2CCOCC2)nc(N2CCOCC2)n1 [Compound 293, 2-Morpholin-4-yl-6-(2-morpholin-4-yl-ethoxy)-pyrimidine-4-carboxylic acid (5-morpholin-4-yl-4H-[1,2,4]triazol-3-yl)-amide] | ≥ 1000 |

| SMILES | IC50 [nM] |
| --- | --- |
| COCCN(C)c1cc(C(=O)NCCc2ccc(C)cc2)nc(N2CCOCC2)n1 [Compound 233, 6-[(2-Methoxy-ethyl)-methyl-amino]-2-morpholin-4-yl-pyrimidine-4-carboxylic acid (2-p-tolyl-ethyl)-amide] | ≥ 1000 |
| Cc1cccc(NC(=O)Nc2cc(N3CCOCC3)nc(OCCc3ccccn3)n2)c1 [Compound 68, 1-[6-Morpholin-4-yl-2-(2-pyridin-2-yl-ethoxy)-pyrimidin-4-yl]-3-m-tolyl-urea] | ≥ 1000 |
| O=C(Nc1ccc(O)cc1)Nc1cc(OCCN2CCOCC2)nc(N2CCOCC2)n1 [Compound 143, 1-(4-Hydroxy-phenyl)-3-[2-morpholin-4-yl-6-(2-morpholin-4-yl-ethoxy)-pyrimidin-4-yl]-urea] | < 1000 |
| CCc1c(C)[nH]c2ccc(NC(=O)c3cc(OCCN4CCOC4=O)nc(N4CCOCC4)n3)cc12 [Compound 222, 2-Morpholin-4-yl-6-[2-(2-oxo-oxazolidin-3-yl)-ethoxy]-pyrimidine-4-carboxylic acid (3-ethyl-2-methyl-1H-indol-5-yl)-amide] | < 1000 |
| Cc1ccc2nc(NC(=O)c3cc(OCCc4ccccn4)nc(N4CCOCC4)n3)sc2c1 [Compound 32, 2-Morpholin-4-yl-6-(2-pyridin-2-yl-ethoxy)-pyrimidine-4-carboxylic acid (6-methyl-benzothiazol-2-yl)-amide] | ≥ 1000 |
| CC(=O)N1CCN(c2cc(C(=O)Nc3ccc4[nH]c(C)c(C)c4c3)nc(N3CCOCC3)c2)CC1 [Compound 169, 4-(4-Acetyl-piperazin-1-yl)-6-morpholin-4-yl-pyridine-2-carboxylic acid (2,3-dimethyl-1H-indol-5-yl)-amide] | < 1000 |
| CCc1c(C)[nH]c2ccc(NC(=O)Nc3cc(NCCN4CCOCC4)nc(N4CCOCC4)n3)cc12 [Compound 270, 1-(3-ethyl-2-methyl-1H-indol-5-yl)-3-(2-morpholino-6-(2-morpholinoethylamino)pyrimidin-4-yl)urea] | < 1000 |
| CC(=O)N1CCN(c2cc(C(=O)Nc3ccc4[nH]c(C)c(C)c4c3)nc(N3CCOCC3)n2)CC1 [Compound 257, 6-(4-acetylpiperazin-1-yl)-N-(2,3-dimethyl-1H-indol-5-yl)-2-morpholinopyrimidine-4-carboxamide] | < 1000 |
| CCc1c(C)[nH]c2ccc(NC(=O)c3cc(N4CCC(O)CC4)nc(N4CCOCC4)n3)cc12 [Compound 177, 6-(4-Hydroxy-piperidin-1-yl)-2-morpholin-4-yl-pyrimidine-4-carboxylic acid (3-ethyl-2-methyl-1H-indol-5-yl)-amide] | < 1000 |
| Cc1cc(NC(=O)c2cc(OCCN3CCOCC3)nc(N3CCOCC3)n2)ccc1N(C)C [Compound 288, 2-Morpholin-4-yl-6-(2-morpholin-4-yl-ethoxy)-pyrimidine-4-carboxylic acid (4-dimethylamino-3-methyl-phenyl)-amide] | ≥ 1000 |
| CCCCN(C)C(=O)CNc1cc(C(=O)Nc2ccc3[nH]c(C)c(C)c3c2)nc(N2CCOCC2)n1 [Compound 107, 6-{[(Butyl-methyl-carbamoyl)-methyl]-amino}-2-morpholin-4-yl-pyrimidine-4-carboxylic acid (2,3-dimethyl-1H-indol-5-yl)-amide] | < 1000 |
| O=C(Nc1cccc(Br)c1)c1cc(OCCN2CCOCC2)nc(N2CCOCC2)n1 [Compound 47, 2-Morpholin-4-yl-6-(2-morpholin-4-yl-ethoxy)-pyrimidine-4-carboxylic acid (3-bromo-phenyl)-amide] | ≥ 1000 |
| CCc1c[nH]c2ccc(NC(=O)c3cc(N4CCC(O)CC4)cc(N4CCOCC4)n3)cc12 [Compound 174, 4-Hydroxy-6′-morpholin-4-yl-3,4,5,6-tetrahydro-2H-[1,4′]bipyridinyl-2′-carboxylic acid (3-ethyl-1H-indol-5-yl)-amide] | < 1000 |
| CC(=O)N1CCN(c2cc(C(=O)Nc3ccc4[nH]cc(C)c4c3)nc(N3CCOCC3)n2)CC1 [Compound 261, 6-(4-acetylpiperazin-1-yl)-N-(3-methyl-1H-indol-5-yl)-2-morpholinopyrimidine-4-carboxamide] | < 1000 |
| O=C(Nc1cccc(Cl)c1)Nc1cc(OCCN2CCOCC2)nc(N2CCOCC2)n1 [Compound 126, 1-(3-Chloro-phenyl)-3-[2-morpholin-4-yl-6-(2-morpholin-4-yl-ethoxy)-pyrimidin-4-yl]-urea] | < 1000 |
| CCc1c[nH]c2ccc(NC(=O)c3cc(N4CCC(C)CC4)nc(N4CCOCC4)n3)cc12 [Compound 178, 6-(4-Methyl-piperidin-1-yl)-2-morpholin-4-yl-pyrimidine-4-carboxylic acid (3-ethyl-1H-indol-5-yl)-amide] | < 1000 |
| COCCNc1cc(C(=O)Nc2ccc3[nH]c(C)c(C)c3c2)nc(N2CCOCC2)n1 [Compound 252, N-(2,3-dimethyl-1H-indol-5-yl)-6-(2-methoxyethylamino)-2-morpholinopyrimidine-4-carboxamide] | < 1000 |

From patent US20060223996A1, “IL-12 modulatory compounds” (Synta Pharmaceuticals Corp., priority 2004, published 2006)
